In PubChem BioAssay AID1259407 (Chemical Carcinogenesis Research Information System (CCRIS), 2018):
The source made the active and inactive calls. The rule behind the calls is not given here.

Tested on: CCRIS mutagenicity, Ames/micronucleus/aberration tests
Assay: CCRIS mutagenicity studies
[1] = Test System: AMES SALMONELLA TYPHIMURIUM, Strain/Indicator: TA98, Metabolic Activation: NONE, Method: PREINCUBATION
[2] = Test System: AMES SALMONELLA TYPHIMURIUM, Strain/Indicator: TA100, Metabolic Activation: NONE, Method: PREINCUBATION
[3] = Test System: AMES SALMONELLA TYPHIMURIUM, Strain/Indicator: TA1535, Metabolic Activation: NONE, Method: PREINCUBATION
[4] = Test System: AMES SALMONELLA TYPHIMURIUM, Strain/Indicator: TA1537, Metabolic Activation: NONE, Method: PREINCUBATION
[5] = Test System: AMES SALMONELLA TYPHIMURIUM, Strain/Indicator: TA98, Metabolic Activation: NONE, Method: STANDARD PLATE
[6] = Test System: AMES SALMONELLA TYPHIMURIUM, Strain/Indicator: TA100, Metabolic Activation: NONE, Method: STANDARD PLATE
[7] = Test System: AMES SALMONELLA TYPHIMURIUM, Strain/Indicator: TA1535, Metabolic Activation: NONE, Method: STANDARD PLATE
[8] = Test System: AMES SALMONELLA TYPHIMURIUM, Strain/Indicator: TA1537, Metabolic Activation: NONE, Method: STANDARD PLATE
[9] = Test System: AMES SALMONELLA TYPHIMURIUM, Strain/Indicator: TA1538, Metabolic Activation: NONE, Method: STANDARD PLATE

N was tested, and the mutagenic call (End Point: IN VIVO MICRONUCLEUS, Test System: BONE MARROW POLYCHROMATIC ERYTHROCYTES, Species: MOUSE, Strain/Sex: DDY/MALE, Route: IP) was “inactive; negative”, the mutagenic call (Test System: AMES SALMONELLA TYPHIMURIUM, Strain/Indicator: TA98, Metabolic Activation: NONE) was “inactive; negative” and the mutagenic call [1] was “inactive; negative”. The mutagenic call (Test System: AMES SALMONELLA TYPHIMURIUM, Strain/Indicator: TA98, Metabolic Activation: RAT, LIVER, S-9, KC 500) was “inactive; negative”, the mutagenic call (Test System: AMES SALMONELLA TYPHIMURIUM, Strain/Indicator: TA98, Metabolic Activation: RAT, LIVER, S-9, KC 500, Method: PREINCUBATION) was “inactive; negative” and the mutagenic call (Test System: AMES SALMONELLA TYPHIMURIUM, Strain/Indicator: TA100, Metabolic Activation: NONE) was “inactive; negative”. For the same compound, the mutagenic call [2] was “inactive; negative”, the mutagenic call (Test System: AMES SALMONELLA TYPHIMURIUM, Strain/Indicator: TA100, Metabolic Activation: RAT, LIVER, S-9, KC 500) was “inactive; negative” and the mutagenic call (Test System: AMES SALMONELLA TYPHIMURIUM, Strain/Indicator: TA100, Metabolic Activation: RAT, LIVER, S-9, KC 500, Method: PREINCUBATION) was “inactive; negative”. For the same compound, the mutagenic call (Test System: AMES SALMONELLA TYPHIMURIUM, Strain/Indicator: TA1535, Metabolic Activation: NONE) was “inactive; negative”, the mutagenic call [3] was “inactive; negative” and the mutagenic call (Test System: AMES SALMONELLA TYPHIMURIUM, Strain/Indicator: TA1535, Metabolic Activation: RAT, LIVER, S-9, KC 500) was “inactive; negative”. For the same compound, the mutagenic call (Test System: AMES SALMONELLA TYPHIMURIUM, Strain/Indicator: TA1535, Metabolic Activation: RAT, LIVER, S-9, KC 500, Method: PREINCUBATION) was “inactive; negative”, the mutagenic call (Test System: AMES SALMONELLA TYPHIMURIUM, Strain/Indicator: TA1537, Metabolic Activation: NONE) was “inactive; negative” and the mutagenic call [4] was “inactive; negative”. The mutagenic call (Test System: AMES SALMONELLA TYPHIMURIUM, Strain/Indicator: TA1537, Metabolic Activation: RAT, LIVER, S-9, KC 500) was “inactive; negative”, the mutagenic call (Test System: AMES SALMONELLA TYPHIMURIUM, Strain/Indicator: TA1537, Metabolic Activation: RAT, LIVER, S-9, KC 500, Method: PREINCUBATION) was “inactive; negative” and the mutagenic call (Test System: AMES SALMONELLA TYPHIMURIUM, Strain/Indicator: TA1538, Metabolic Activation: NONE) was “inactive; negative”. The mutagenic call (Test System: AMES SALMONELLA TYPHIMURIUM, Strain/Indicator: TA1538, Metabolic Activation: NONE, Method: PREINCUBATION) was “inactive; negative”, the mutagenic call (Test System: AMES SALMONELLA TYPHIMURIUM, Strain/Indicator: TA1538, Metabolic Activation: RAT, LIVER, S-9, KC 500) was “inactive; negative” and the mutagenic call (Test System: AMES SALMONELLA TYPHIMURIUM, Strain/Indicator: TA1538, Metabolic Activation: RAT, LIVER, S-9, KC 500, Method: PREINCUBATION) was “inactive; negative”. For the same compound, the mutagenic call (Test System: E. COLI, Strain/Indicator: WP2 UVRA, Metabolic Activation: NONE) was “inactive; negative”, the mutagenic call (Test System: E. COLI, Strain/Indicator: WP2 UVRA, Metabolic Activation: NONE, Method: PREINCUBATION) was “inactive; negative” and the mutagenic call (Test System: E. COLI, Strain/Indicator: WP2 UVRA, Metabolic Activation: RAT, LIVER, S-9, KC 500) was “inactive; negative”. For the same compound, the mutagenic call (Test System: E. COLI, Strain/Indicator: WP2 UVRA, Metabolic Activation: RAT, LIVER, S-9, KC 500, Method: PREINCUBATION) was “inactive; negative”.
In the case of C[O+](C)C.[Cl][Sb-]([Cl])([Cl])([Cl])([Cl])[Cl], the mutagenic call [1] is reported as “inactive; negative”, the mutagenic call (Test System: AMES SALMONELLA TYPHIMURIUM, Strain/Indicator: TA98, Metabolic Activation: RAT, LIVER, S-9, AROCLOR 1254 (10%), Method: PREINCUBATION) is reported as “inactive; negative” and the mutagenic call [2] is reported as “inactive; negative”. The mutagenic call (Test System: AMES SALMONELLA TYPHIMURIUM, Strain/Indicator: TA1535, Metabolic Activation: HAMSTER, LIVER, S-9, AROCLOR 1254 (10%), Method: PREINCUBATION) was “inactive; negative”, the mutagenic call [3] was “inactive; negative” and the mutagenic call (Test System: AMES SALMONELLA TYPHIMURIUM, Strain/Indicator: TA1535, Metabolic Activation: RAT, LIVER, S-9, AROCLOR 1254 (10%), Method: PREINCUBATION) was “inactive; negative”. For the same compound, the mutagenic call (Test System: AMES SALMONELLA TYPHIMURIUM, Strain/Indicator: TA1537, Metabolic Activation: HAMSTER, LIVER, S-9, AROCLOR 1254 (10%), Method: PREINCUBATION) was “inactive; negative”, the mutagenic call [4] was “inactive; negative” and the mutagenic call (Test System: AMES SALMONELLA TYPHIMURIUM, Strain/Indicator: TA1537, Metabolic Activation: RAT, LIVER, S-9, AROCLOR 1254 (10%), Method: PREINCUBATION) was “inactive; negative”. The mutagenic call (Test System: MOUSE LYMPHOMA, Strain/Indicator: L5178Y (TK+/TK-), Metabolic Activation: RAT, LIVER, S-9, AROCLOR 1254, Method: SUSPENSION/PLATE) was “active; positive. reevaluation of results: positive” and the mutagenic call (Test System: Mouse lymphoma, Strain/Indicator: L5178Y (tk+/tk-), Metabolic Activation: None, Method: Suspension/plate) was “inactive; negative”.
For O=C(O)[C@@H]1CS[C@H](c2ccccc2O)N1C(=O)CCSSCCC(=O)N1[C@@H](c2ccccc2O)SC[C@H]1C(=O)O, the mutagenic call [5] was “inactive; negative”, the mutagenic call [6] was “inactive; negative” and the mutagenic call [7] was “inactive; negative”. For the same compound, the mutagenic call [8] was “inactive; negative”, the mutagenic call [9] was “inactive; negative” and the mutagenic call (Test System: E. COLI, Strain/Indicator: WP2, Metabolic Activation: NONE, Method: STANDARD PLATE) was “inactive; negative”. The mutagenic call (Test System: E. COLI, Strain/Indicator: WP2 UVRA, Metabolic Activation: NONE, Method: STANDARD PLATE) was “inactive; negative”.
C[Si](Cl)(Cl)Cl was tested, and the mutagenic call [5] was “inactive; negative”, the mutagenic call (Test System: AMES SALMONELLA TYPHIMURIUM, Strain/Indicator: TA98, Metabolic Activation: RAT LIVER S-9, AROCLOR 1254, Method: STANDARD PLATE) was “inactive; negative” and the mutagenic call [6] was “inactive; negative”. For the same compound, the mutagenic call (Test System: AMES SALMONELLA TYPHIMURIUM, Strain/Indicator: TA100, Metabolic Activation: RAT LIVER S-9, AROCLOR 1254, Method: STANDARD PLATE) was “inactive; negative”, the mutagenic call [7] was “inactive; negative” and the mutagenic call (Test System: AMES SALMONELLA TYPHIMURIUM, Strain/Indicator: TA1535, Metabolic Activation: RAT LIVER S-9, AROCLOR 1254, Method: STANDARD PLATE) was “inactive; negative”. The mutagenic call [8] was “inactive; negative”, the mutagenic call (Test System: AMES SALMONELLA TYPHIMURIUM, Strain/Indicator: TA1537, Metabolic Activation: RAT LIVER S-9, AROCLOR 1254, Method: STANDARD PLATE) was “inactive; negative” and the mutagenic call [9] was “inactive; negative”. For the same compound, the mutagenic call (Test System: AMES SALMONELLA TYPHIMURIUM, Strain/Indicator: TA1538, Metabolic Activation: RAT LIVER S-9, AROCLOR 1254, Method: STANDARD PLATE) was “inactive; negative”, the mutagenic call (Test System: E. COLI, Strain/Indicator: P3078 POLA, Metabolic Activation: NONE, Method: SPOT TEST) was “inactive; negative” and the mutagenic call (Test System: E. COLI, Strain/Indicator: P3078 POLA, Metabolic Activation: RAT LIVER S-9, AROCLOR 1254, Method: SPOT TEST) was “inactive; negative”. For the same compound, the mutagenic call (Test System: E. COLI, Strain/Indicator: W3110, Metabolic Activation: NONE, Method: SPOT TEST) was “inactive; negative”, the mutagenic call (Test System: E. COLI, Strain/Indicator: W3110, Metabolic Activation: RAT LIVER S-9, AROCLOR 1254, Method: SPOT TEST) was “inactive; negative” and the mutagenic call (Test System: MOUSE LYMPHOMA, Strain/Indicator: L5178Y (TK+/TK-), Metabolic Activation: NONE, Method: SUSPENSION/PLATE) was “inactive; negative”. The mutagenic call (Test System: MOUSE LYMPHOMA, Strain/Indicator: L5178Y (TK+/TK-), Metabolic Activation: RAT, LIVER, S-9, Method: SUSPENSION/PLATE) was “inactive; negative”.
